Details: Crystal

C1CSCCS1 [1,4-dithiacyclohexane]
vapor or sublimation pressure [kPa]
Details | 296.65 K | 355.75 K | 359.45 K | 362.35 K | 367.35 K | 370.65 K | 374.05 K | 374.25 K | 376.95 K
Rate of evaporation | – | 1.067 | 1.333 | 1.893 | 2.653 | 3.246 | 3.826 | 3.906 | 4.626
Transpiration method | 0.00918 | – | – | – | – | – | – | – | –

Reference: the NIST ThermoML archive (doi:10.1021/je800586u)
